What all share (format): cell-based
For experiment [1], the system named is primary human mesenchymal stem cells (hMSCs). Put plainly: Chondrogenesis induction screen in primary human mesenchymal stem cells. Particulars: 6 days, chondrogenic nodules, dose range 10-2700 nM. The procedure: The above synthesized compounds were screened using primary human mesenchymal stem cells (hMSCs) to determine their ability to induce chondrogenesis (process by which cartilage is developed).
Primary human mesenchymal stem cells (hMSCs) were purchased from Lonza (Walkersville, Md.) and expanded in Mesenchymal Stem Cell Growth Media (Lonza). Cells between passage 3 and 6 were used for the experiments.
Each compound was dissolved in DMSO as a 10 mM stock and used to prepare compound source plates. Serial dilution (1:3, 6-point dose-response curves from 2700 nM to 10 nM) and compound transfer was performed using the ECHO 550 (Labcyte, Sunnyvale, Calif.) into 96-well clear bottom assay plates (Greiner Bio-One) with appropriate DMSO backfill for a final DMSO concentration of 0.03%. hMSCs were plated at 20,000 cells/well in 250 μL/well Incomplete Chondrogenic Induction Medium (Lonza; DMEM, dexamethasone, ascorbate, insulin-transferrin-selenium [ITS supplement], gentamycin-amphotericin [GA-1000], sodium pyruvate, proline and L-glutamine). TGF-β3 (10 ng/mL) was used as a positive control for differentiation while negative control wells were treated with 75 nL DMSO for normalization and calculating EC50 values. Cells were incubated at 37° C. and 5% CO2 for 6 days. To image chondrogenic nodules, the cells were fixed using 4% formaldehyde (Electron Microscopy Sciences), and stained with 2 μg/mL Rhodamine B (Sigma-Aldrich) and 20 μM Nile Red (Sigma-Aldrich) [Johnson K., et.al, A Stem Cell—Based Approach to Cartilage Repair, Science, (2012), 336(6082), 717-721]. The nodules imaged (4 images per well at 4× magnification) by excitation at 531 nm and emission at 625 nm and quantified using the CellInsight CX5 (Thermo Scientific). Number of nodules in each well was normalized to the average of 3 DMSO treated wells on the same plate using Excel (Microsoft Inc.). The normalized averages (fold change over DMSO) of 3 replicate wells for each compound concentration were calculated. Due to solubility limitations of some of the compounds, curve fitting was incomplete leading to inaccurate EC50 determinations.
Using TGF-β3 as a positive control, the concentration of test compounds required to induce equivalent levels of chondrogenesis is reported. In addition, the maximum activity of each compound and the respective dose that each compound reached maximum chondrogenesis activity is reported.

The subject of experiment [2] is Wnt activity (SW480 colon carcinoma cells stably expressing the Sp5-Luc reporter gene). In words: Sp5-Luc reporter gene screening assay for Wnt activity in SW480 cells. Conditions: Homo sapiens, 42 h incubation, luminescence. The gist of the method:
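SW480 cells stably carrying an Sp5 promoter (eight TCF/LEF sites)-luciferase reporter were plated overnight in 10% FCS medium. BrightGlo luminescence was normalised to DMSO wells, and IC50 was obtained by four-parameter fit.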
(In general: Reporter assays use an easily measured gene product as a stand-in for the process of interest.)

In experiment [3] the test system is primary human fibroblasts derived from IPF patients (LL29 cells). Put plainly: Inhibition of fibrosis (αSMA) in TGF-β1 treated primary human fibroblasts from IPF patients. Conditions: Fibroblast, 96 h, TGF-β1 20 ng/mL, 4 days, % αSMA positive cells. In short, it runs like this:
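IPF patient-derived LL29 lung fibroblasts in 1% FBS were treated with compound (11 points, 10 μM to 1.87 nM, 0.1% DMSO) and then 20 ng/mL TGF-β1 for 4 days at 37° C. Fraction of SYTOX-negative cells positive for αSMA was quantified by immunofluorescence imaging and normalized to TGF-β1 controls. EC50 came from non-linear regression over triplicate wells.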

Consider `Cc1ccc(-c2ccnc3[nH]c(-c4n[nH]c5ccc(-c6cncc(NC(=O)C(C)C)c6)cc45)nc23)s1` [Compound 373, N-(5-(3-(7-(5-Methylthiophen-2-yl)-3H-imidazo[4,5-b]pyridin-2-yl)-1H-indazol-5-yl)pyridin-3-yl)isobutyramide], for which, in experiment [1], the “Conc (nM) of Max. activity” value is 30 nM. Also, the half-inhibitory concentration (IC50) (in general, the point on the concentration scale where inhibition reaches its midpoint) in experiment [2] worked out at 6.4 nM. For the same molecule, in experiment [3], the 50% effective concentration (EC50) (as a rule, the concentration at which the effect is half-maximal) came out at 0.045 nM.

Regarding `CC(C)CC(=O)Nc1cncc(-c2ccc3[nH]nc(-c4nc5c(-c6cccc(F)c6)ccnc5[nH]4)c3c2)c1` [Compound 2, N-(5-(3-(7-(3-Fluorophenyl)-3H-imidazo[4,5-b]pyridin-2-yl)-1H-indazol-5-yl)pyridin-3-yl)-3-methylbutanamide], the “Conc (nM) of Max. activity” value in experiment [1] is recorded as 30 nM. 2 nM corresponded to half-maximal inhibition in experiment [2] (IC50). This molecule showed an EC50 in experiment [3] of 0.041 nM.

`CCCCC(=O)Nc1cncc(-c2ccc3[nH]nc(-c4nc5c(-c6ccccn6)ccnc5[nH]4)c3c2)c1` [Compound 148, N-(5-(3-(7-(Pyridin-2-yl)-3H-imidazo[4,5-b]pyridin-2-yl)-1H-indazol-5-yl)pyridin-3-yl)pentanamide]: the “Conc (nM) of Max. activity” value in experiment [1] is recorded as 100 nM. The molecule further had an IC50 in experiment [2] of 8.1 nM. Besides, the EC50 in experiment [3] came out at 0.085 nM.

Regarding `CCCCC(=O)Nc1cncc(-c2ccc3[nH]nc(-c4nc5c(-c6cc(F)cc(NCCN(C)C)c6)ccnc5[nH]4)c3c2)c1` [Compound 460, N-(5-(3-(7-(3-((2-(Dimethylamino)ethyl)amino)-5-fluorophenyl)-3H-imidazo[4,5-b]pyridin-2-yl)-1H-indazol-5-yl)pyridin-3-yl)pentanamide], the “Conc (nM) of Max. activity” value in experiment [1] was found to be 30 nM. Also, in experiment [2], the half-inhibitory concentration (IC50) came out at 11.6 nM. In addition, in experiment [3], the EC50 amounted to 0.111 nM.

As to `Nc1cncc(-c2ccc3[nH]nc(-c4nc5c(-c6ccccc6F)ccnc5[nH]4)c3c2)c1` [Compound 55, 5-(3-(7-(2-Fluorophenyl)-3H-imidazo[4,5-b]pyridin-2-yl)-1H-indazol-5-yl)pyridin-3-amine], in experiment [1], the “Conc (nM) of Max. activity” value was 30 nM. For the same molecule, the IC50 in experiment [2] came to 1.8 nM. For the same molecule, the EC50 in experiment [3] was 0.017 nM.

Regarding `Cc1cn(-c2ccnc3[nH]c(-c4n[nH]c5ccc(-c6cncc(NC(=O)CC(C)C)c6)cc45)nc23)cn1` [Compound 184, 3-Methyl-N-(5-(3-(7-(4-methyl-1H-imidazol-1-yl)-3H-imidazo[4,5-b]pyridin-2-yl)-1H-indazol-5-yl)pyridin-3-yl)butanamide], the “Conc (nM) of Max. activity” value in experiment [1] amounted to 300 nM. This molecule came in with an IC50 in experiment [2] of 2.3 nM. The response in experiment [3] was half-maximal at 0.142 nM (EC50).

Turning to `CN(C)c1cncc(-c2ccc3[nH]nc(-c4nc5c(-c6cccc(F)c6)ccnc5[nH]4)c3c2)c1` [Compound 7, 5-(3-(7-(3-Fluorophenyl)-3H-imidazo[4,5-b]pyridin-2-yl)-1H-indazol-5-yl)-N,N-dimethylpyridin-3-amine], in experiment [1], the “Conc (nM) of Max. activity” value came out at 100 nM. Further, in experiment [2], the IC50 is under 1 nM. Moreover, the EC50 in experiment [3] is 0.066 nM.

Regarding `CC(C)(C)C(=O)Nc1cncc(-c2ccc3[nH]nc(-c4nc5c(-c6ccc(F)s6)ccnc5[nH]4)c3c2)c1` [Compound 346, N-(5-(3-(7-(5-Fluorothiophen-2-yl)-3H-imidazo[4,5-b]pyridin-2-yl)-1H-indazol-5-yl)pyridin-3-yl)pivalamide], the “Conc (nM) of Max. activity” value in experiment [1] came to 300 nM. In experiment [2], the midpoint of inhibition, the IC50, lay at 0.4 nM. Moreover, the half-maximal effective concentration (EC50) in experiment [3] is 0.009 nM.

`CCCC(=O)Nc1cncc(-c2ccc3[nH]nc(-c4nc5c(-c6ccsc6)ccnc5[nH]4)c3c2)c1` [Compound 277, N-(5-(3-(7-(Thiophen-3-yl)-3H-imidazo[4,5-b]pyridin-2-yl)-1H-indazol-5-yl)pyridin-3-yl)butyramide]: in experiment [1], the “Conc (nM) of Max. activity” value is listed as 30 nM. Further, half-maximal inhibition in experiment [2] (IC50) required 1 nM. In addition, in experiment [3], the EC50 was determined as 0.016 nM.

As to `Oc1cncc(-c2ccc3[nH]nc(-c4nc5c(-c6cccc(F)c6)ccnc5[nH]4)c3c2)c1` [Compound 1885, 5-(3-(7-(3-Fluorophenyl)-3H-imidazo[4,5-b]pyridin-2-yl)-1H-indazol-5-yl)pyridin-3-ol], the “Conc (nM) of Max. activity” value in experiment [1] is on record as 100 nM. This molecule had an IC50 in experiment [2] of 11 nM. Moreover, the EC50 in experiment [3] turned out to be 0.009 nM.

In the case of `Fc1cccc(-c2ccnc3[nH]c(-c4n[nH]c5ccc(-c6cn[nH]c6)cc45)nc23)c1` [Compound 1875, 2-(5-(1H-Pyrazol-4-yl)-1H-indazol-3-yl)-7-(3-fluorophenyl)-3H-imidazo[4,5-b]pyridine], in experiment [1], the “Conc (nM) of Max. activity” value worked out at 2700 nM. Further, in experiment [2], the concentration for half-maximal inhibition (IC50) came out at 5 nM. In experiment [3], this molecule showed an EC50 of 0.009 nM.

Regarding `c1cncc(-c2ccc3[nH]nc(-c4nc5c(-c6cccnc6)ccnc5[nH]4)c3c2)c1` [Compound 82, 7-(Pyridin-3-yl)-2-(5-(pyridin-3-yl)-1H-indazol-3-yl)-3H-imidazo[4,5-b]pyridine], the “Conc (nM) of Max. activity” value in experiment [1] is on record as 10 nM. Also, the IC50 in experiment [2] is 3.5 nM. In addition, in experiment [3], a half-maximal effect (EC50) was put at 0.303 nM.

Consider `Cc1ccncc1-c1ccc2[nH]nc(-c3nc4c(-c5ccncc5)ccnc4[nH]3)c2c1` [Compound 109, 2-(5-(4-Methylpyridin-3-yl)-1H-indazol-3-yl)-7-(pyridin-4-yl)-3H-imidazo[4,5-b]pyridine], for which the “Conc (nM) of Max. activity” value in experiment [1] is given as 30 nM. The IC50 in experiment [2] was found to be 13.7 nM. It took 0.781 nM to reach a half-maximal effect in experiment [3] (EC50).

In the case of `CC(C)Nc1cncc(-c2ccc3[nH]nc(-c4nc5c(-c6ccoc6)ccnc5[nH]4)c3c2)c1` [Compound 298, 5-(3-(7-(Furan-3-yl)-3H-imidazo[4,5-b]pyridin-2-yl)-1H-indazol-5-yl)-N-isopropylpyridin-3-amine], the “Conc (nM) of Max. activity” value in experiment [1] is reported as 30 nM. This molecule gave an IC50 in experiment [2] of 5 nM. This molecule gave an EC50 in experiment [3] of 0.102 nM.

Consider `CCCC(=O)Nc1cncc(-c2ccc3[nH]nc(-c4nc5c(-c6cc(F)cc(CNS(C)(=O)=O)c6)ccnc5[nH]4)c3c2)c1` [Compound 433, N-(5-(3-(7-(3-Fluoro-5-(methylsulfonamidomethyl)phenyl)-3H-imidazo[4,5-b]pyridin-2-yl)-1H-indazol-5-yl)pyridin-3-yl)butyramide], for which the “Conc (nM) of Max. activity” value in experiment [1] was 2700 nM. Also, half-maximal inhibition in experiment [2] (IC50) required 3 nM. Besides, the EC50 in experiment [3] was over 10 nM.

`Fc1cccc(-c2ccnc3[nH]c(-c4n[nH]c5ccc(-c6cncc(CN7CCC(F)(F)C7)c6)cc45)nc23)c1` [Compound 25, 2-(5-(5-((3,3-Difluoropyrrolidin-1-yl)methyl)pyridin-3-yl)-1H-indazol-3-yl)-7-(3-fluorophenyl)-3H-imidazo[4,5-b]pyridine]: the “Conc (nM) of Max. activity” value in experiment [1] is 30 nM. Also, the half-maximal inhibitory concentration (IC50) in experiment [2] is under 1 nM. The molecule also displayed an EC50 in experiment [3] of 0.099 nM.

In turn, `O=C(Nc1cncc(-c2ccc3[nH]nc(-c4nc5c(-c6ccccc6F)ccnc5[nH]4)c3c2)c1)C1CCCC1` [Compound 73, N-(5-(3-(7-(2-Fluorophenyl)-3H-imidazo[4,5-b]pyridin-2-yl)-1H-indazol-5-yl)pyridin-3-yl)cyclopentanecarboxamide] yielded a half-maximal inhibitory concentration (IC50) in experiment [2] of 13 nM. In addition, the EC50 in experiment [3] turned out to be 0.379 nM.

On to `Cc1ccc(-c2ccnc3[nH]c(-c4n[nH]c5ccc(-c6cncc(N)c6)cc45)nc23)s1` [Compound 367, 5-(3-(7-(5-Methylthiophen-2-yl)-3H-imidazo[4,5-b]pyridin-2-yl)-1H-indazol-5-yl)pyridin-3-amine], for which, in experiment [2], half-maximal inhibition (IC50) was put at 4.3 nM. Besides, in experiment [3], the EC50 worked out at 0.314 nM.

(Values after patent US10280166B2, “2-(1H-indazol-3-yl)-3H-imidazo[4,5-B]pyridine and therapeutic uses thereof” (Samumed, LLC, priority 2014, dated 2019).)
